Assay results as given in patent US9622988B2, “Small molecule xanthine oxidase inhibitors and methods of use” (Baylor College of Medicine, priority 2012, dated 2017).

Experiments:
[1] = molecular target: Xanthine oxidase from bovine milk (Bos taurus, UniProt P80457); details: for inhibition of XO: each compound at 20 μM (FIG. 2); for time course of inhibition of XO activity: 20 nM XO added to 50 μM xanthine and 6.67 μM inhibitor (FIG. 3)
[2] = Peroxynitrite scavenging assay; details: 20 μM (FIG. 7C)
Method: Peroxynitrite Scavenging Assay—Peroxynitrite (ONOO^−) was generated by mixing 5 mL acidic solution (0.6 M HCl) of H2O2 (0.7 M) and 5 mL of 0.6 M KNO2 in an ice bath for 1 second and the reaction was quenched with 5 mL of ice-cold 1.2 M NaOH. Residual H2O2 was removed using granular MnO2 prewashed with 1.2 M NaOH and the reaction mixture was then left overnight at −20° C. Concentrations of ONOO^− were determined before each experiment at 302 nm using a molar extinction coefficient of 1,670 M^−1 cm^−1. The final concentrations of reagents used in the assay are as follows: 25 μM ONOO^−, 10 μM DTPA, 5 μM DHR 123, 0.1 M phosphate buffer, pH 7.4. The ONOO^− scavenging assay was performed by monitoring the oxidation of dihydrorhodamine (DHR 123) by ONOO^− spectrophotometrically at 500 nm.

[3] = system: allantoxanamide induced hyperuricemic mice; test: Hypouricemic effect in allantoxanamide induced hyperuricemic mice; assay type: in vivo, C57BL/6 mice; details: 100 mg/kg oral before 200 mg/kg allantoxanamide i.p., up to 4 hours (FIG. 13)
Method: A hyperuricemia mouse model was used. Allantoxanamide, a potent uricase inhibitor, was used to induce hyperuricemia in mice in this study. […] The mice were subsequently intraperitoneally injected with allantoxanamide at 200 mg/kg in 0.5% CMC-Na in a volume of 0.1 ml/10 g mouse body weight just after the tested drug oral administration to increase the serum uric acid level. […] The negative control mice were administered PEG400 only followed by i.p. allantoxanamide. The normal group mice were administered PEG400 only followed by i.p. CMC-Na only. Food and water were withheld overnight prior to the study. Whole blood samples were collected from mice through orbital vein bleeding at the end of the study. The mice were anaesthetized with diethyl ether inside a chamber. The blood was allowed to clot for 1 h at room temperature and then centrifuged at 2350×g for 4 min to obtain the serum. The serum was kept on ice and assayed immediately. Serum uric acid was determined with the phosphotungstate method, as known to those of skill in the art.

[4] = system: C57BL/6 mice
[5] = Superoxide scavenging assay (xanthine-xanthine oxidase system, NBT); details: 20 μM (FIG. 7D)
Method: Superoxide Scavenging Assay—Superoxide (O2^−.) scavenging activity was assayed in the xanthine-xanthine oxidase system and determined by the inhibition of the reduction of nitro blue tetrazolium (NBT) to form blue formazan which has an absorption at 560 nm. The final concentrations of reagents used in the assay are as follows: 16.8 mU xanthine oxidase, 25 μM xanthine, 50 μM NBT, and 0.1 M phosphate buffer (pH 8.5). […] The abilities of polyphenols to scavenge O2^−. were compared with that of GSH.

[6] = molecular target: T1, XO (Bos taurus, UniProt P80457); test: Conversion of DHNB to products by XO; assay type: biochemical, bovine; details: room temperature
T1 construct: Xanthine oxidase from bovine milk; purchased Sigma Chemical Co. (St. Louis, Mo.); host or cells: bovine milk (natural source)

[7] = Antioxidant activity of polyphenols (summary); details: FIG. 7

Xanthine oxidase from bovine milk, sequence (P80457 whole entry): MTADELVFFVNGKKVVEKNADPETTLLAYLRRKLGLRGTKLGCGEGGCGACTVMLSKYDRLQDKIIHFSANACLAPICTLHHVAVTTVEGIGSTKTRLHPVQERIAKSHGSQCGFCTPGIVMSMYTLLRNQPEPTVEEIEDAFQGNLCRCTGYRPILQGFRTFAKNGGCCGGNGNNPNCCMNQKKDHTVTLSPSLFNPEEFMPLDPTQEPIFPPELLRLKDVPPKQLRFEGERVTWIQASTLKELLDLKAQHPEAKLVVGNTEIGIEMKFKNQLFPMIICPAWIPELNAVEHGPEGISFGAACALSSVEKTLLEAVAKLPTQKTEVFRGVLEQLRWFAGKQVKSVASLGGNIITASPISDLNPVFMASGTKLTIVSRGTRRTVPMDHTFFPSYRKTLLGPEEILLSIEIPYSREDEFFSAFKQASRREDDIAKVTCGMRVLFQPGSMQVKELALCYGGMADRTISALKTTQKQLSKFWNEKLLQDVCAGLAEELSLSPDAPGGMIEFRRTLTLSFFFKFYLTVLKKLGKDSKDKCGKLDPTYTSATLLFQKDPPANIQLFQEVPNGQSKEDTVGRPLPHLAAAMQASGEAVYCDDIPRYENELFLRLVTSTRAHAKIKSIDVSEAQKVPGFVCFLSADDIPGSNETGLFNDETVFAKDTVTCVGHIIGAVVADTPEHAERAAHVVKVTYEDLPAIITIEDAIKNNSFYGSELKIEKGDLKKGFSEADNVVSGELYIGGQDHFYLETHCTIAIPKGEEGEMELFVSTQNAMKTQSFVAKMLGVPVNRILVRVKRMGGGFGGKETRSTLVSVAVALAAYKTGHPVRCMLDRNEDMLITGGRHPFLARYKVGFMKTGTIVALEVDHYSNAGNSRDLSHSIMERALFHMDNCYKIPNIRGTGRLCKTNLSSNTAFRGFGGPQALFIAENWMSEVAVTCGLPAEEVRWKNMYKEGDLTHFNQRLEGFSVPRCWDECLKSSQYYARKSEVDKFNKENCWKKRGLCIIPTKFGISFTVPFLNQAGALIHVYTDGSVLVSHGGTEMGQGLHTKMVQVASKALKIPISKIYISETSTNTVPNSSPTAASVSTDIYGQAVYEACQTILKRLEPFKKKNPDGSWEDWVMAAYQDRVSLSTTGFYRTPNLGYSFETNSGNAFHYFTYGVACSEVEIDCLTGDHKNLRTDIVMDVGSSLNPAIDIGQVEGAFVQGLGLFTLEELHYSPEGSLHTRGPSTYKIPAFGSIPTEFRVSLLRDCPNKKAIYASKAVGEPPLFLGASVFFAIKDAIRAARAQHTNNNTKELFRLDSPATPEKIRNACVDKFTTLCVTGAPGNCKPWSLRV
T1 sequence (P80457 whole entry): as above

inhibition of XO [1] | Structure (SMILES) | ONOO^− scavenging effect [2] | also measured
inhibitory effects on XO | O=Cc1cc(O)c(O)cc1[N+](=O)[O-] [DH6NB, 3,4-Dihydroxy-6-nitrobenzaldehyde] | strong scavenging effect | 
no effect on XO | O=C(O)c1cc(O)c(O)c(O)c1 [gallic acid, reference compound] | strong scavenging effect | 
 | O=C(O)c1cc(O)c(O)c([N+](=O)[O-])c1 [3,4-dihydroxy-5-nitrobenzoic acid] |  | inhibitory effect of the DHNB/XO product on XO [6]: no inhibitory effect on XO
inhibitory effects on XO | O=Cc1ccc(O)c(O)c1 [DHB-CHO, 3,4-dihydroxybenzaldehyde] | strong scavenging effect | 
no inhibition on XO activity | COc1cc(C=O)ccc1O [Vanillin, reference compound] |  | 
no effect on XO | O=C(O)/C=C/c1ccc(O)c(O)c1 [caffeic acid, reference compound] | strong scavenging effect | 
no effect on XO | COc1ccc(CO)cc1OC [DMB-CH2OH, 3,4-dimethoxybenzyl alcohol, reference compound] |  | 
 | Oc1ncnc2[nH]ncc12 [allopurinol, reference compound] |  | time course of inhibition of XO activity [1]: time-dependent inhibition; antioxidant activity (scavenging of DPPH, ONOO^−, HOCl, superoxide ion) [7]: does not possess the antioxidant properties; serum urate levels (hypouricemic effect) [3]: significantly lowered the serum urate level close to the normal level; pups died in two days ([4]; 500 mg/kg, total 19 pups of surviving mice): eight

Structure (SMILES) | inhibition of XO [1] | ONOO^− scavenging effect [2] | also measured
O=Cc1cc(O)c(O)c([N+](=O)[O-])c1 [DHNB, 3,4-Dihydroxy-5-nitrobenzaldehyde] | inhibitory effects on XO | strong scavenging effect | time course of inhibition of XO activity [1]: time-dependent inhibition; XO inhibition after treatment with reducing agents ([1]; 20 μM DHNB, then GSH, DTT or 2-ME 20 mM (FIG. 5)): did not abolish the inhibition; initial rates with increasing xanthine concentrations (Dixon plot) ([1]; DHNB concentration fixed, 1 min pre-incubation (FIG. 1B)): did not change with increasing xanthine concentrations; serum urate levels (hypouricemic effect) [3]: significantly lowered in 2 hours and maintained at a level just slightly higher than the normal level in 4 hours; histology analysis for the liver, kidney, and heart vs control mice ([4]; mouse, in vivo): did not show any difference
O.O=Cc1cc(O)c(O)c(O)c1 [THB-CHO, 3,4,5-trihydroxybenzaldehyde hydrate] | inhibitory effects on XO | strong scavenging effect | IC50 of XO activity inhibition ([1]; 20 nM XO, 50 μM xanthine, phosphate buffer pH 7.4, 25° C.): too high to determine; superoxide scavenging effect [5]: strong scavenging effects on superoxide
O=C(O)c1ccc(O)c(O)c1 [DHB-COOH, 3,4-dihydroxybenzoic acid, reference compound] | no effect on XO |  | 
